Assay [1] addresses T1, SMARCA4 (Homo sapiens, UniProt P51532).
T1 construct: SMARCA4-HiBiT knock-in Hela monoclonal cell (CS3023226) were purchased from Promega; host or cells: HeLa (CRISPR HiBiT knock-in monoclonal line, heterozygous)
Briefly: SMARCA4 HiBiT degradation assay in HeLa cells. It is filed as cell-based. Conditions: 18 hours; for Dmax: HeLa. As to the method:
(§1) Example A. SMARCA2 HiBiT and SMARCA4 HiBiT Degradation Assay
(§2) Preparation of SMARCA2/4-HiBiT Knock-In Cells
(§3) HiBiT peptide knock-in of SMARCA2 in LgBiT expressing HEK293T cells was performed by CRISPR-mediated tagging system as described Promega. The homozygous HiBiT knock-in on c-terminus SMARCA2 was confirmed by sanger sequence. SMARCA2-HiBiT knock-in Hela monoclonal cell (CS302366) and SMARCA4-HiBiT knock-in Hela monoclonal cell (CS3023226) were purchased from Promega. The heterozygous HiBiT-knock-in was confirmed by sanger sequence in both SMARCA2-HiBiT and SMARCA4-HiBiT monoclonal cells.
(§4) SMARCA2 HiBiT and SMARCA4 HiBiT Degradation Assay in HeLa Cells
(§5) Compounds were dissolved in DMSO to make 10 mM stock and 3-fold series dilutions were further conducted keeping the highest concentration 10 μM. NCIH1693 and NCIH520 cells were maintained in PRMI 1640 medium (Corning Cellgro, Catalog #:10-040-CV) supplemented with 10% v/v FBS (GE Healthcare, Catalog #: SH30910.03) by splitting 1:3 twice a week.
(§6) Dispense 10 ul aliquot of prepared Hela-SMARCA2-HiBiT or Hela-SMARCA4-HiBiT cells (1:1 ratio of cells:Trypan Blue (#1450013, Bio-Rad)) onto cell counting slide (#145-0011, Bio-Rad) and obtain cell density and cell viability using cell counter (TC20, Bio-Rad). Remove appropriate volume of resuspended cells from culture flask to accommodate 2500 cells/well @ 20 μL/well. Transfer Hela-HiBiT cells to 50 mL conical (#430290, Corning). Spin down at 1000 rpm for 5 min using tabletop centrifuge (SPINCHRON 15, Beckman). Discard supernatant and resuspend cell pellet in modified EMEM (#30-2003, ATCC) cell culture media containing 10% FBS (F2422-500ML, Sigma), and 1X Penicillin/Streptomycin (200 g/L) (30-002-CI, Corning) to a cell density of 125,000 cells/mL. Dispense 20 μL of resuspended Hela-HiBit cells per well in 384-well TC treated plate (#12-565-343, Thermo Scientific) using standard cassette (#50950372, Thermo Scientific) on Multidrop Combi (#5840310, Thermo Scientific) inside laminar flow cabinet. Dispense test compounds onto plates using digital liquid dispenser (D300E, Tecan). Incubate plates in humidified tissue culture incubator @37° C. for 18 hours. Add 20 μL of prepared Nano-Glo® HiBiT Lytic detection buffer (N3050, Promega) to each well of 384-well plate using small tube cassette (#24073295, Thermo Scientific) on Multidrop Combi, incubate @ RT for 30-60 min. Read plates on microplate reader (Envision 2105, PerkinElmer) using 384 well Ultra-Sensitive luminescence mode. Raw data files and compound information reports are swept into centralized data lake and deconvoluted using automated scripts designed by TetraScience, Inc. Data analysis, curve-fitting and reporting done in Dotmatics Informatics Suite using Screening Ultra module.

Assay [2] addresses T2, SMARCA2 (Homo sapiens, UniProt P51531).
T2 construct: SMARCA2-HiBiT knock-in Hela monoclonal cell (CS302366); host or cells: HeLa (CRISPR HiBiT knock-in monoclonal line, heterozygous)
Briefly: SMARCA2 HiBiT degradation assay in HeLa cells. It is filed as cell-based. To be noted: 18 hours; for DC50: read-out: SMARCA2 IC50; for Dmax: HeLa. As to the method:
as §1, §2, §3, §4, §5, §6

A value given as a limit tells only on which side of the number the result lay.

T1 sequence (P51532 whole entry): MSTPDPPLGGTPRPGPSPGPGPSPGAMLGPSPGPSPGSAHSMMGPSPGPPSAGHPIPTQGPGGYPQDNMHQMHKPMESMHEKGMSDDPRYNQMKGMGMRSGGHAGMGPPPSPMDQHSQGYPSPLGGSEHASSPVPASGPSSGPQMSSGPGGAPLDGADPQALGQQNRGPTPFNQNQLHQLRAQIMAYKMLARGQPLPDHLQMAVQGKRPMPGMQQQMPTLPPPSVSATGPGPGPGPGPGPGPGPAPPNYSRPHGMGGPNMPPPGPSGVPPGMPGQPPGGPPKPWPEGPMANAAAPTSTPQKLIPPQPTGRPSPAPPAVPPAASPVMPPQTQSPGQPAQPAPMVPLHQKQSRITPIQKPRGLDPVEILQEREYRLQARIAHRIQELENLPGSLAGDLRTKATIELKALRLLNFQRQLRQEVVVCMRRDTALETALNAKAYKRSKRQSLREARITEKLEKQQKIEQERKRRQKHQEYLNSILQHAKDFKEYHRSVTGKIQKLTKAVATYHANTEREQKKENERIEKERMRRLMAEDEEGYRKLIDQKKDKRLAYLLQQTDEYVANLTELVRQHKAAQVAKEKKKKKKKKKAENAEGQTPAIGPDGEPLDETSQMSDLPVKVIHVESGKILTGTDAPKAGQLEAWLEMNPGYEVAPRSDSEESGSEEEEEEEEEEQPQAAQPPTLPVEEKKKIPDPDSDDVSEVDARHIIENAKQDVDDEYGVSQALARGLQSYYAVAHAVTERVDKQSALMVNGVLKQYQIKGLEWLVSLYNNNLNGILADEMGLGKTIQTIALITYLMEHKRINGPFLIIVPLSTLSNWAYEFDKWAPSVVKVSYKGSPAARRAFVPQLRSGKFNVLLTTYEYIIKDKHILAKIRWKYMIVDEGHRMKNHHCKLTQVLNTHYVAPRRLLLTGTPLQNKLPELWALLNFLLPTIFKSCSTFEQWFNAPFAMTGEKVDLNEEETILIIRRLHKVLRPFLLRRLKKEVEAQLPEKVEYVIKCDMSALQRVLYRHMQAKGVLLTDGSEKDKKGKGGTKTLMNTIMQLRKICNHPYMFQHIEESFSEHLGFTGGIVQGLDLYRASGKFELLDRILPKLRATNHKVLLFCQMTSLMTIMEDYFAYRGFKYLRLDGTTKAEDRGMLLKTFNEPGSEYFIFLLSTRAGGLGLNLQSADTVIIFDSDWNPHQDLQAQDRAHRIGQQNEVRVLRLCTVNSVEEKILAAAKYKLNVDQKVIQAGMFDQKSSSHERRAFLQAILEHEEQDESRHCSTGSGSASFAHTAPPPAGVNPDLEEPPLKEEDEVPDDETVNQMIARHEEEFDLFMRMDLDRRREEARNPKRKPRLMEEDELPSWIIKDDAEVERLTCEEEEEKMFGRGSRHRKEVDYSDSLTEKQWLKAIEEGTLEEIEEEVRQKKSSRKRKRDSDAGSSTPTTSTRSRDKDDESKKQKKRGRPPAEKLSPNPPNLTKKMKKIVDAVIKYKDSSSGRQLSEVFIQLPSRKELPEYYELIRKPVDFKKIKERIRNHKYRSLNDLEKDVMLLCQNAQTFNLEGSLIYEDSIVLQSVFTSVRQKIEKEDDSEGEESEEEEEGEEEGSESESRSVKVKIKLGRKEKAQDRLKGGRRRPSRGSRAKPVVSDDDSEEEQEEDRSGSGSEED
T2 sequence (P51531 whole entry): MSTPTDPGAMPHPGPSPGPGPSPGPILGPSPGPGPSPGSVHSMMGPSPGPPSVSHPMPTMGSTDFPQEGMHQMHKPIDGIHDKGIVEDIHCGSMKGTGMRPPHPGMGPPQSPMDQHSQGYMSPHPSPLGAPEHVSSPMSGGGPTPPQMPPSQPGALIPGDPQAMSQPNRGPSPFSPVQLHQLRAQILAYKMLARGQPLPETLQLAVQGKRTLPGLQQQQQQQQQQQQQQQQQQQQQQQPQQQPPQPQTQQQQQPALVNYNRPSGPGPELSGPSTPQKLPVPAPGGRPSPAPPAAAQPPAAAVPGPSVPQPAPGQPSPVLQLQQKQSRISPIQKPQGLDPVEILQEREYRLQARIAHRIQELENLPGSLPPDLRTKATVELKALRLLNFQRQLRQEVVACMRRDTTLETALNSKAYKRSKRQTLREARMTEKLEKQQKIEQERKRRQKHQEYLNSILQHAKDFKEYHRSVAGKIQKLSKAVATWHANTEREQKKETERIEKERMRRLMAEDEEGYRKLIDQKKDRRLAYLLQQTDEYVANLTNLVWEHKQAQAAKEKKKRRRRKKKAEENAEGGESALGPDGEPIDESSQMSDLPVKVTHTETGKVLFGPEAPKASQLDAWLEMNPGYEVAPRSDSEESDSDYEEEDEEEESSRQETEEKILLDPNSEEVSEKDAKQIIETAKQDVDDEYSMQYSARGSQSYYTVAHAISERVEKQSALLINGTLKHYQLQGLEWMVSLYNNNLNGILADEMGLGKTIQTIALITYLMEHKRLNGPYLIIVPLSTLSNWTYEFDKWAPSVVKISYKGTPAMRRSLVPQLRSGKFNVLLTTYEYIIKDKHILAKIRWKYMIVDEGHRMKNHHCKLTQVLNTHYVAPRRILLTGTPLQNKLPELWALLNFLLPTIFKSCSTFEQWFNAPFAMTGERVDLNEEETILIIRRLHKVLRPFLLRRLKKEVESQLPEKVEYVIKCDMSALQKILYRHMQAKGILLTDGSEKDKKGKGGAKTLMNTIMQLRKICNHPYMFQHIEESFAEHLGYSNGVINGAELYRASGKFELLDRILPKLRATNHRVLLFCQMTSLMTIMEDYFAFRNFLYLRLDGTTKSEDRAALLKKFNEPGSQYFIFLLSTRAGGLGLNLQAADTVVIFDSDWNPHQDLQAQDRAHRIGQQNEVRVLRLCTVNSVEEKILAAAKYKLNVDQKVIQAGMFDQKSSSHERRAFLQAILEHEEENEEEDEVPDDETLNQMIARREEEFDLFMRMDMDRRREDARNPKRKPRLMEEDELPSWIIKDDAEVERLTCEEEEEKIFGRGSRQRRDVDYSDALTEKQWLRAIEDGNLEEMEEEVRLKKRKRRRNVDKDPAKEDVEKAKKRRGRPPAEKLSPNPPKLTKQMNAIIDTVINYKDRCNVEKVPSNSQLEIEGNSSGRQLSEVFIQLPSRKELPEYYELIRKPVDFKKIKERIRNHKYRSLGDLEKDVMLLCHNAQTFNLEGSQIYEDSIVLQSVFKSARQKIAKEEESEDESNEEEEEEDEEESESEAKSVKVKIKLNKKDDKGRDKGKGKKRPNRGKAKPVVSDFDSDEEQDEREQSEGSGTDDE

Take `CC1(C)CN(CC2CCN(c3ccc4c(c3)C(=O)N(C3CCC(=O)NC3=O)C4)CC2)CCN1C(=O)N1CCN2c3cc(-c4cccc(F)c4O)nnc3NCC2(C)C1` (mixture of isomers) [Example 6, 3-(6-(4-((4-(2-(3-fluoro-2-hydroxyphenyl)-6a-methyl-6,6a,7,8,9,10-hexahydro-5H-pyrazino[1′,2′:4,5]pyrazino[2,3-c]pyridazine-8-carbonyl)-3,3-dimethylpiperazin-1-yl)methyl)piperidin-1-yl)-1-oxoisoindolin-2-yl)piperidine-2,6-dione]: in assay [1], the DC50 is less than 0.1 µM and the Dmax is more than 75%. In assay [2], the DC50 is less than 0.1 µM and the Dmax was more than 75%.

As to `CC1(C)CN(CC2CCN(c3ccc4c(c3)C(=O)N(C3CCC(=O)NC3=O)C4=O)CC2)CCN1C(=O)N1CCN2c3cc(-c4cccc(F)c4O)nnc3NCC2(C)C1` (mixture of isomers) [Example 7, 2-(2,6-dioxopiperidin-3-yl)-5-(4-((4-(2-(3-fluoro-2-hydroxyphenyl)-6a-methyl-6,6a,7,8,9,10-hexahydro-5H-pyrazino[1′,2′:4,5]pyrazino[2,3-c]pyridazine-8-carbonyl)-3,3-dimethylpiperazin-1-yl)methyl)piperidin-1-yl)isoindoline-1,3-dione], in assay [1], the DC50 was less than 0.1 µM and the Dmax fell in the range of 50 to 75%. In assay [2], the DC50 is less than 0.1 µM and the Dmax is more than 75%.

Take `CCC12CNc3nnc(-c4cccc(F)c4O)cc3N1CCN(C(=O)N1CCN(CC3CCN(c4ccc5c(c4)C(=O)N(C4CCC(=O)NC4=O)C5)CC3)CC1(C)C)C2` (mixture of isomers) [Example 8, 3-(6-(4-((4-(6a-ethyl-2-(3-fluoro-2-hydroxyphenyl)-6,6a,7,8,9,10-hexahydro-5H-pyrazino[1′,2′:4,5]pyrazino[2,3-c]pyridazine-8-carbonyl)-3,3-dimethylpiperazin-1-yl)methyl)piperidin-1-yl)-1-oxoisoindolin-2-yl)piperidine-2,6-dione]: in assay [1], the DC50 is less than 0.1 µM and the Dmax is 50 to 75%. For the same compound, in assay [2], the DC50 is less than 0.1 µM and the Dmax was more than 75%.

In assay [1], `CCC12CNc3nnc(-c4cc(F)cc(F)c4O)cc3N1CCN(C(=O)N1CCN(CC3CCN(c4ccc5c(c4)C(=O)N(C4CCC(=O)NC4=O)C5)CC3)CC1(C)C)C2` (mixture of isomers) [Example 27, 3-(6-(4-((4-(2-(3,5-difluoro-2-hydroxyphenyl)-6a-ethyl-6,6a,7,8,9,10-hexahydro-5H-pyrazino[1′,2′:4,5]pyrazino[2,3-c]pyridazine-8-carbonyl)-3,3-dimethylpiperazin-1-yl)methyl)piperidin-1-yl)-1-oxoisoindolin-2-yl)piperidine-2,6-dione] gave a DC50 of less than 0.1 µM and a Dmax of 50 to 75%. In assay [2], the DC50 is less than 0.1 µM and the maximal degradation (Dmax) was more than 75%.

In assay [1], `CCC1CN(CC2CN(c3ccc4c(c3)C(=O)N(C3CCC(=O)NC3=O)C4)C2)CCN1C(=O)N1CCN2c3cc(-c4cc(F)cc(F)c4O)nnc3NC[C@H]2C1` (mixture of isomers) [Example 29, 3-(6-(3-((4-((S)-2-(3,5-difluoro-2-hydroxyphenyl)-6,6a,7,8,9,10-hexahydro-5H-pyrazino[1′,2′:4,5]pyrazino[2,3-c]pyridazine-8-carbonyl)-3-ethylpiperazin-1-yl)methyl)azetidin-1-yl)-1-oxoisoindolin-2-yl)piperidine-2,6-dione] came in with a DC50 of less than 0.1 µM and a Dmax of less than 50%. Besides, in assay [2], the DC50 is less than 0.1 µM and the Dmax is more than 75%.

For the compound `CC1(C)CN(CC2CCN(c3ccc4c(c3)C(=O)N(C3CCC(=O)NC3=O)C4)CC2)CCN1C(=O)N1CCN2c3cc(-c4cccc(Cl)c4O)nnc3NCC2(C)C1` (mixture of isomers) [Example 31, 3-(6-(4-((4-(2-(3-chloro-2-hydroxyphenyl)-6a-methyl-6,6a,7,8,9,10-hexahydro-5H-pyrazino[1′,2′:4,5]pyrazino[2,3-c]pyridazine-8-carbonyl)-3,3-dimethylpiperazin-1-yl)methyl)piperidin-1-yl)-1-oxoisoindolin-2-yl)piperidine-2,6-dione], in assay [1], the DC50 was less than 0.1 µM and the Dmax is less than 50%. Besides, in assay [2], the DC50 was less than 0.1 µM and the Dmax lay within 50 to 75%.

In assay [1], `CCC12CNc3nnc(-c4cccc(F)c4O)cc3N1CCN(C(=O)N1CCN(CC3CCN(c4ccc5c(c4)C(=O)N(C4CCC(=O)NC4=O)C5=O)CC3)CC1(C)C)C2` (mixture of isomers) [Example 32, 2-(2,6-dioxopiperidin-3-yl)-5-(4-((4-(6a-ethyl-2-(3-fluoro-2-hydroxyphenyl)-6,6a,7,8,9,10-hexahydro-5H-pyrazino[1′,2′:4,5]pyrazino[2,3-c]pyridazine-8-carbonyl)-3,3-dimethylpiperazin-1-yl)methyl)piperidin-1-yl)isoindoline-1,3-dione] yielded a DC50 of less than 0.1 µM and a Dmax of less than 50%. In addition, in assay [2], the DC50 was less than 0.1 µM and the Dmax fell in the range of 50 to 75%.

Turning to `CCC1CN(CC2CCN(c3ccc4c(c3)C(=O)N(C3CCC(=O)NC3=O)C4)CC2)CCN1C(=O)N1CCN2c3cc(-c4cc(F)cc(F)c4O)nnc3NC[C@H]2C1` (mixture of isomers) [Example 35, 3-(6-(4-((4-((S)-2-(3,5-difluoro-2-hydroxyphenyl)-6,6a,7,8,9,10-hexahydro-5H-pyrazino[1′,2′:4,5]pyrazino[2,3-c]pyridazine-8-carbonyl)-3-ethylpiperazin-1-yl)methyl)piperidin-1-yl)-1-oxoisoindolin-2-yl)piperidine-2,6-dione], the DC50 in assay [1] and in assay [2] was less than 0.1 µM each time. Moreover, the Dmax in assay [1] was 50 to 75%; in assay [2], more than 75%.

For the compound `C[C@@H]1CN(C[C@H]2CCN(c3ccc4c(c3)C(=O)N(C3CCC(=O)NC3=O)C4)C[C@@H]2F)C[C@H](C)N1C(=O)N1CCN2c3cc(-c4cc(F)cc(F)c4O)nnc3NC[C@H]2C1` (mixture of isomers) [Example 42, 3-(6-((rac-3R,4R)-4-(((3S,5R)-4-((S)-2-(3,5-difluoro-2-hydroxyphenyl)-6,6a,7,8,9,10-hexahydro-5H-pyrazino[1′,2′:4,5]pyrazino[2,3-c]pyridazine-8-carbonyl)-3,5-dimethylpiperazin-1-yl)methyl)-3-fluoropiperidin-1-yl)-1-oxoisoindolin-2-yl)piperidine-2,6-dione], the DC50 in assay [1] and in assay [2] was less than 0.1 µM throughout. The Dmax in assay [1] is less than 50%; in assay [2], more than 75%.

As to `CC1(C)CN(CC2CCN(c3ccc4c(c3)C(=O)N(C3CCC(=O)NC3=O)C4)CC2)CCN1C(=O)N1CCN2c3cc(-c4cccc(F)c4O)nnc3NCC2(C)C1` (single isomer, unassigned) [Example 9, 3-(6-(4-((4-(2-(3-fluoro-2-hydroxyphenyl)-6a-methyl-6,6a,7,8,9,10-hexahydro-5H-pyrazino[1′,2′:4,5]pyrazino[2,3-c]pyridazine-8-carbonyl)-3,3-dimethylpiperazin-1-yl)methyl)piperidin-1-yl)-1-oxoisoindolin-2-yl)piperidine-2,6-dione], in assay [1], the DC50 was less than 0.1 µM and the “SMARCA4 DMax %” value was “A (A=Dmax>75%)”. Also, in assay [2], the DC50 was less than 0.1 µM and the Dmax is more than 75%.

The values are drawn from patent US20230365576A1, “BRM Targeting Compounds And Associated Methods Of Use” (Prelude Therapeutics Incorporated, priority 2022, published 2023).
